According to patent publication US20160363584A1, “SYSTEMS AND METHODS FOR STUDYING INFLAMMATION-DRUG INTERACTIONS” (Hepregen Corporation, priority 2012, published 2016):
Like-named read-outs stand apart in the source and are kept apart here.

Columns and labels:
[1] = test system: human Kupffer-HepatoPac™ cultures; format: cell-based
Procedure: Cryopreserved human hepatocytes, cryopreserved human Kupffer cells and 3T3 J2 mouse fibroblasts were used in the manufacturing of the co-culture platform. Cryopreserved hepatocyte vials were thawed in a 37° C. water bath for 90-120 seconds followed by dilution in 50 mL of pre-warmed percoll-based hepatocyte density sedimentation medium (p=1.06). The cell suspension was spun at 50×g for 5 minutes. The supernatant was discarded, cells were resuspended in hepatocyte culture media (HCM) (Hepregen Corporation, Medford, Mass.) and viability was assessed using trypan blue exclusion (typically 80-95%). Liver-derived non-parenchymal cells, as judged by their size (˜10 μm in diameter) and morphology (non-polygonal), were consistently found to be less than 1% in these preparations. […] Kupffer cells were gently rocked into suspension and evaluated for viability via Trypan Blue exclusion. […]
Cytotoxicity was assessed by evaluation of cellular ATP content while hepatocyte metabolic competence was assessed by urea production. […] The reaction is based on the acid catalyzed condensation of urea with diacetylmonoxime in the presence of thiosemicarbazide to yield a red purple chromogen that is read spectrophotometrically. The cellular ATP content was measured in cell lysates using the Cell Titer-Glo luminescent kit from Promega (Madison, Wis.). […]

mouse = details: cited from earlier work; for Effect on TVX/LPS toxic response: in vivo mouse model, Shaw et al.
[2] = test system: human Kupffer cell-treated HepatoPac™ model; test: Chronic toxicity platform, nine day treatment, cellular ATP content; format: cell-based; details: for Toxicity in the presence of LPS-stimulated Kupffer cells: 50 ng/ml LPS; for Toxicity following nine days of compound dosing: all treatment conditions (HepatoPac or Kupffer cell-treated, +/- LPS)
Procedure: Chronic toxicity of various compounds suspected to be immunoreactive was evaluated with the human Kupffer cell-treated HepatoPac™ model (hepatocyte:Kupffer cell ratio of 1:0.4). Following a nine day treatment, compound toxicity was assessed as a function of cellular ATP content. TVX was used as a positive control. […] On day 7, cryopreserved unmatched Kupffer cells were added to the cultures. The cultures were dosed with compounds on culture Day 8 (hereby referred to as Dosing Day 0). On Dosing Day 1, LPS was added to the culture media at a final concentration of 50 ng/ml. On Dosing Day 3, 10 μl of supernatant was removed from cultures for urea analysis and replaced with an additional dose of the test compound. Similarly, supernatant was collected and cultures were re-dosed on Dosing Days 5 and 7. On Dosing Day 9, supernatant was collected and the cellular ATP content of the cultures was assessed (Promega Cell Titer Glo). Urea secretion of hepatocytes was quantified for the time-points of Dosing Day […], 5, 7, and 9 (data not shown).

[3] = test system: Human HepatoMune™ co-cultures; test: cells
Procedure: Hepatocytes were seeded on micropatterned collagen plates on Day 0. On Day 1, 3T3 fibroblasts were added to the cultures. Human HepatoPac® co-cultures were allowed to stabilize functionally for 7 days in serum-supplemented medium. Human Kupffer cells (from unmatched donors) were seeded onto the hepatocyte cocultures on Day 7 of culture at a hepatocyte to Kupffer cell ratio of 10:4. […] Cell lysates from each treatment group were collected on days 11 and 14 of culture for assessment of drug-induced effects on cytotoxicity.

[4] = test system: rat Kupffer-HepatoPac™ cultures; format: cell-based
Procedure: Cytotoxicity was assessed by evaluation of cellular ATP content while hepatocyte metabolic competence was assessed by urea production. Production of urea, a liver-specific function, was assayed in culture media using the Stanbio kit according to manufacturer's directions. The reaction is based on the acid catalyzed condensation of urea with diacetylmonoxime in the presence of thiosemicarbazide to yield a red purple chromogen that is read spectrophotometrically. The cellular ATP content was measured in cell lysates using the Cell Titer-Glo luminescent kit from Promega (Madison, Wis.).
HepatoPac™ co-cultures were first allowed to stabilize functionally in serum-supplemented media for a 7-day period. Species-matched Kupffer cells were added to human and rat HepatoPac™ at multiple ratios (to mimic both the normal and inflamed state of the liver). To mimic the physiological state, human and rate Kupffer cells were added at hepatocyte:Kupffer cell ratios of 1:0.1 and 1:0.2, respectively. To mimic the inflamed state human Kupffer cells (at a ratio of 1:0.4 hepatocytes:Kupffer cells) or rat Kupffer cells (at a ratio of 1:0.5 hepatocytes:Kupffer cells) were then added to the cultures. On day 8 of culture, the cultures were treated with increasing concentrations of either Trovafloxacin or Levofloxacin (0-400 μM) in serum-free media. 24 hrs later, the cultures were stimulated with 50 ng/mL LPS. […]

TNF-α = TNF-α secretion in TVX/LPS-treated rat cultures with pentoxifylline; format: cell-based; details: 5 mM pentoxifylline
Procedure: Cultures were treated with Trovafloxacin and 5 mM Pentoxifylline for 72 hours. After 24 hours of dosing, Kupffer cells were activated with 50 ng/ml of LPS.

[5] = test system: HepatoPac™-Kupffer cell co-cultures; test: IL-6 secretion after cytokine exposure of HepatoPac-Kupffer cell co-cultures; format: cell-based, human; details: 2 or 4 day treatment
Procedure: (§1) Cultures received 2 or 4 day treatment with IL-2, IL-1B, TNF-α, or IL-6 in serum-free media after which cytokine levels were assayed in their supernatants, Cyp3A4 activity was determined using the P450-Glo Assay (Promega), total ATP was measured (Promega Cell-Titer Glo) and RNA was extracted (Qiagen Rneasy).
Cultures were exposed to IL-2, IL-1B and TNF-α and secretion of IL-6 into the culture supernatant was measured.

Procedure for CYP3A4: as §1
Standard human HepatoPac™ and Kupffer cell-treated HepatoPac™ (hepatocyte:Kupffer cell ratio of 1:0.4) cultures were treated with the inflammatory cytokine IL-1B for 4 days. Sensitivity to IL-1B was measured as a function of Cyp3A4 activity repression. Following 4 days of IL-1B treatment, cytokines were removed and cultures were allowed to recover for 6 days.

For `N[C@@H]1[C@H]2CN(c3nc4c(cc3F)c(=O)c(C(=O)O)cn4-c3ccc(F)cc3F)C[C@@H]12` [TVX, trovafloxacin], the “TVX toxicity on addition of TNF-α” value [1] is given as “potentiates TVX toxicity”, the “Toxicity under LPS-induced inflammatory stress” value (mouse; mouse, in vivo) is given as “toxic” and the “Toxicity in the presence of LPS-stimulated Kupffer cells” value ([2]; 9-day treatment) is given as “increased toxicity”. For the same compound, the “Toxicity following nine days of compound dosing” value [2] was “toxicity in all treatment conditions was observed”.

`CN(C)CCCN1c2ccccc2Sc2ccc(Cl)cc21` [chlorpromazine] showed an IC50 ([3]; read-out: IC50 (concentration at which 50% of the cells are dead), absence of LPS) of 29 µM and an IC50 ([3]; read-out: IC50 (concentration at which 50% of the cells are dead), presence of 50 ng/ml LPS) of 17 µM.

With `O=C(O)Cc1ccccc1Nc1c(Cl)cccc1Cl` [diclofenac] the “LPS-mediated toxicity after 3-day treatment” value ([2]; 3-day treatment (data not shown)) was “did not result in increased LPS-mediated toxicity” and the “Toxicity in the presence of LPS-stimulated Kupffer cells” value ([2]; 9-day treatment) was “increased toxicity”.

With `CC(=O)N1CCN(c2ccc(OCC3COC(Cn4ccnc4)(c4ccc(Cl)cc4Cl)O3)cc2)CC1` (stereo not drawn) [ketoconazole] the “Difference in TC50 between treatment groups” value ([2]; 9-day treatment) was “no significant difference” and the “Toxicity following nine days of compound dosing” value [2] was “toxicity in all treatment conditions was observed”.

For `C[C@H]1COc2c(N3CCN(C)CC3)c(F)cc3c(=O)c(C(=O)O)cn1c23` [levofloxacin], the “Toxicity (cellular ATP content)” value [4] was “not toxic”.

For `CC(=O)CCCCn1c(=O)c2c(ncn2C)n(C)c1=O` [pentoxifylline], the “Effect on TVX/LPS-induced HepatoPac toxicity” value ([4]; 5 mM pentoxifylline, 72 hours, 50 ng/ml LPS after 24 hours) is given as “significantly decreased”, the “Effect on TNF-α secretion” value (TNF-α) is given as “significantly decreased” and the “Effect on TVX/LPS toxic response” value (mouse) is given as “toxicity abrogation”.

With IL-1B: inflammatory cytokine the CYP3A4 expression (CYP3A4) was “Repression of CYP3A4 expression”, the Cyp3A4 activity (CYP3A4) was “dose-dependent and Kupffer cell-enhanced repression” and the “Time Cyp3A4 activity remained repressed after removal of IL-1B” value (CYP3A4; human, 96 h) was 4 days. The “IL-6 secretion into the culture supernatant” value [5] was “causes IL-6 release”.

With IL-6: cytokine the Cyp3A4 activity (CYP3A4) was “maintains repression”.

For TNF-α, the “IL-6 secretion into the culture supernatant” value [5] was “no effect”.

In the case of etanercept, the “Effect on TVX/LPS toxic response” value (mouse) is listed as “toxicity abrogation”.
